Assay [1] has as its system HepG2. Description: Antiproliferative activity against human HepG2 cells after 72 hrs by sulforhodamine B assay. The assay is classed as functional, cell-based. To be noted: HepG2, 72 h.
Assay [2] addresses Epidermal growth factor receptor (Homo sapiens, UniProt P00533). Description: Inhibition of EGFR (unknown origin) measured after 40 mins by Kinase Glo luminescence assay.
The target in a further assay is Aurora kinase B (Homo sapiens, UniProt Q96GD4). Description: Inhibition of Aurora B (unknown origin) measured after 40 mins by Kinase Glo luminescence assay.
Sequence of Aurora kinase B (Q96GD4 whole entry): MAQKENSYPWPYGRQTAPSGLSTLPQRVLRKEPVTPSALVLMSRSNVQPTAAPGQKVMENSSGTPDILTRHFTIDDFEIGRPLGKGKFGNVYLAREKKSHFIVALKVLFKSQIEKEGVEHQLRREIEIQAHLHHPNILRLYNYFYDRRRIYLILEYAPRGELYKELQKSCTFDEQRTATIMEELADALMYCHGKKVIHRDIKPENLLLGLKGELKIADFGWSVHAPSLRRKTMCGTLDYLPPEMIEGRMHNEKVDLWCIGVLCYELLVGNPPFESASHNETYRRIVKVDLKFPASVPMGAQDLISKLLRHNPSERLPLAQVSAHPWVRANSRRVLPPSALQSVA
Assay [3] has as its system HepG2. Description: Induction of apoptosis in human HepG2 cells assessed as late apoptotic cells at 10 uM after 24 to 72 hrs by Annexin V-FITC/propidium iodide staining based flow cytometric method (reference value: 4.56%). It is filed as functional.
The subject of assay [4] is HepG2. The experiment in a line: Induction of apoptosis in human HepG2 cells assessed as early apoptotic cells at 10 uM after 24 to 72 hrs by Annexin V-FITC/propidium iodide staining based flow cytometric method (reference value: 1.28%). It is filed as functional.
The target in assay [5] is Dual specificity mitogen-activated protein kinase kinase; MEK1/2 (Homo sapiens, UniProt P36507+Q02750). Description: Inhibition of MEK (unknown origin) measured after 40 mins by Kinase Glo luminescence assay.
Assay [6] deals with Vascular endothelial growth factor receptor 2 (Homo sapiens, UniProt P35968). Description: Inhibition of VEGFR2 (unknown origin) measured after 40 mins by Kinase Glo luminescence assay.
Sequence of Vascular endothelial growth factor receptor 2 (P35968 whole entry): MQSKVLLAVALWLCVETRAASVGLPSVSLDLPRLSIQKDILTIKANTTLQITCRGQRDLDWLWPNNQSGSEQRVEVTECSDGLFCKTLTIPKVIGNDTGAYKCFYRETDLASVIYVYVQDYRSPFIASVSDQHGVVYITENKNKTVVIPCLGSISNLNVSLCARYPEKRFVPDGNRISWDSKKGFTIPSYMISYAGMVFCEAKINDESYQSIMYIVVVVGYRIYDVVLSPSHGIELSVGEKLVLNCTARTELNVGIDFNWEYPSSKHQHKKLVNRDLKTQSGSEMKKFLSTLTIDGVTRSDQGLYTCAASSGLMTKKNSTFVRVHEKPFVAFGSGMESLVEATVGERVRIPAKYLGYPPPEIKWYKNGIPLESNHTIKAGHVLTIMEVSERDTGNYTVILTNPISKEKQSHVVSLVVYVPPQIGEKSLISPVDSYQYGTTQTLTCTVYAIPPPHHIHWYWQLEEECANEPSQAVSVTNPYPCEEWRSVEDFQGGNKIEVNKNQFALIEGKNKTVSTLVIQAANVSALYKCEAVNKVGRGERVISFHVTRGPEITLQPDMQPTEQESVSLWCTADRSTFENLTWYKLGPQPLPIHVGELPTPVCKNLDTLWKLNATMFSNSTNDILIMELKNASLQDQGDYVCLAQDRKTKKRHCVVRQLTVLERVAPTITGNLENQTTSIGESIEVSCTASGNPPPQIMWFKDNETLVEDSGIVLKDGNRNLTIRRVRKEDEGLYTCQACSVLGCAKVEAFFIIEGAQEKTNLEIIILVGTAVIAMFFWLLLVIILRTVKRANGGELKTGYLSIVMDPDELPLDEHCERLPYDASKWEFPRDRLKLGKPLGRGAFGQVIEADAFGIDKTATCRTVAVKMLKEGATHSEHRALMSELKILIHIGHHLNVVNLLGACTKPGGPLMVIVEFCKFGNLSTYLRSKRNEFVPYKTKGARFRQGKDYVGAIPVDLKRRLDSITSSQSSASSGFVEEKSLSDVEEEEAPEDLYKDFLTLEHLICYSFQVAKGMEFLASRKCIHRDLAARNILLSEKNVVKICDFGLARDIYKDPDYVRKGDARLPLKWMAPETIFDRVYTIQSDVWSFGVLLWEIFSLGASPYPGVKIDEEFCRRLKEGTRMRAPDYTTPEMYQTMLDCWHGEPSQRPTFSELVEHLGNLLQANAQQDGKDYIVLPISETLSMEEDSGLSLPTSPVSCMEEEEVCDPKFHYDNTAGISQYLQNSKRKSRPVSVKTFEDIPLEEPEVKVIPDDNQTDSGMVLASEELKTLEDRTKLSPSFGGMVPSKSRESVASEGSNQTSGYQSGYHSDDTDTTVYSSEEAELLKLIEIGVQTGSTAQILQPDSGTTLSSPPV
Assay [7] concerns the target RAF proto-oncogene serine/threonine-protein kinase (Homo sapiens, UniProt P04049). Description: Inhibition of RAF (unknown origin) measured after 40 mins by Kinase Glo luminescence assay.
The target of assay [8] is Hepatocyte growth factor receptor (Homo sapiens, UniProt P08581). Description: Inhibition of c-MET (unknown origin) measured after 40 mins by Kinase Glo luminescence assay.
Sequence of Hepatocyte growth factor receptor (P08581 whole entry): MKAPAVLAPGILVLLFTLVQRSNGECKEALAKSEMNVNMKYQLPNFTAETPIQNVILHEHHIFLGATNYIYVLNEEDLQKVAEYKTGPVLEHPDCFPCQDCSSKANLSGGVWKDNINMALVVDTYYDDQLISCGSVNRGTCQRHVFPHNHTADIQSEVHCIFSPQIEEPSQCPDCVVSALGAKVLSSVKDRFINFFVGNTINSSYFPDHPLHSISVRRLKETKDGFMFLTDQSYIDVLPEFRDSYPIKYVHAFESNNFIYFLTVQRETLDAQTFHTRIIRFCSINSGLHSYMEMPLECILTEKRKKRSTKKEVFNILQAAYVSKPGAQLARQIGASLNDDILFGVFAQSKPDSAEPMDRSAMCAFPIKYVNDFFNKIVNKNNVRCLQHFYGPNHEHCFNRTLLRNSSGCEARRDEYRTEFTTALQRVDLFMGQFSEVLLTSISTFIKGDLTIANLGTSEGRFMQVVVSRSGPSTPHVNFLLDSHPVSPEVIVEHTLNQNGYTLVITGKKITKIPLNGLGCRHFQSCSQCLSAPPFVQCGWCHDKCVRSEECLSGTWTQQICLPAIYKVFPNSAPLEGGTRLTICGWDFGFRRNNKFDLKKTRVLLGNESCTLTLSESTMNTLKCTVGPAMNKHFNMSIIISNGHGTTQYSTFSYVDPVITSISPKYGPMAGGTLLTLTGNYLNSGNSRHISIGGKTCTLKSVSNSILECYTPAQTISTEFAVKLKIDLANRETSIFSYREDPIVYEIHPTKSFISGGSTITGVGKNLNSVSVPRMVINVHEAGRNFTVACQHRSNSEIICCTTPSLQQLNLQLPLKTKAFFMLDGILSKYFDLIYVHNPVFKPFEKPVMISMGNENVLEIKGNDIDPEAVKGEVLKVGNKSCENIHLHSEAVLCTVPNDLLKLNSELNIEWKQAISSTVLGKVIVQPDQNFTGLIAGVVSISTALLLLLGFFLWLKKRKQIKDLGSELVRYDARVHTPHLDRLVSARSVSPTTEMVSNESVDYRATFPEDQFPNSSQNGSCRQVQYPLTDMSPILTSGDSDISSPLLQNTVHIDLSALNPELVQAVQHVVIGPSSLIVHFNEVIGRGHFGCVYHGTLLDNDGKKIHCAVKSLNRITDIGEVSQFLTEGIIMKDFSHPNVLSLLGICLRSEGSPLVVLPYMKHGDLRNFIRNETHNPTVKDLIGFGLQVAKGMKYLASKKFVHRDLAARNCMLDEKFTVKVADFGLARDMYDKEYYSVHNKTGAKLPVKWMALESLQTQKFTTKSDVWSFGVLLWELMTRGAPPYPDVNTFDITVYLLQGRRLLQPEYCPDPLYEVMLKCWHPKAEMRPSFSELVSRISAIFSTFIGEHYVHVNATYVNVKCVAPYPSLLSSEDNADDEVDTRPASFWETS
Assay [9] relates to HepG2. Description: Induction of apoptosis in human HepG2 cells assessed as nuclear chromatin condensation at 2 to 10 uM after 15 mins to 24 hrs by Hoechst 33258 staining based fluorescence microscopic method. The assay is classed as functional, cell-based.
Assay [10] has as its system HepG2. The experiment in a line: Induction of apoptosis in human HepG2 cells assessed as appearance of apoptotic bodies at 2 to 10 uM after 15 mins to 24 hrs by Hoechst 33258 staining based fluorescence microscopic method. It is filed as functional, cell-based.
Assay [11] deals with HepG2. Description: Induction of apoptosis in human HepG2 cells assessed as early apoptotic cells at 2 uM after 24 to 72 hrs by Annexin V-FITC/propidium iodide staining based flow cytometric method (reference value: 1.28%). It is filed as functional.
The test system of assay [12] is HepG2. Description: Induction of apoptosis in human HepG2 cells assessed as late apoptotic cells at 2 uM after 24 to 72 hrs by Annexin V-FITC/propidium iodide staining based flow cytometric method (reference value: 4.56%). It is filed as functional.
Assay [13] concerns HepG2. Description: Induction of apoptosis in human HepG2 cells assessed as early apoptotic cells at 5 uM after 24 to 72 hrs by Annexin V-FITC/propidium iodide staining based flow cytometric method (reference value: 1.28%). It is filed as functional.
For assay [14], the system named is HepG2. The experiment in a line: Induction of apoptosis in human HepG2 cells assessed as late apoptotic cells at 5 uM after 24 to 72 hrs by Annexin V-FITC/propidium iodide staining based flow cytometric method (reference value: 4.56%). It is filed as functional.
Assay [15] concerns HepG2. The experiment in a line: Induction of apoptosis in human HepG2 cells after 24 to 72 hrs by Annexin V-FITC/propidium iodide staining based flow cytometric method. It is filed as functional, cell-based.
Assay [16] concerns HepG2. The experiment in a line: Induction of apoptosis in human HepG2 cells assessed as decrease in mitochondrial membrane potential after 15 mins to 24 hrs by JC1 staining based fluorescence microscopic method. It is filed as functional, cell-based.
Assay [17] has as its system HepG2. The experiment in a line: Induction of apoptosis in human HepG2 cells assessed as increase in Bax expression at 2 to 10 uM after 30 mins to 24 hrs by Western blot method. It is filed as functional, cell-based.
The subject of assay [18] is HepG2. The experiment in a line: Induction of apoptosis in human HepG2 cells assessed as decrease in Bcl-2 expression at 2 to 10 uM after 30 mins to 24 hrs by Western blot method. It is filed as functional, cell-based.
The subject of assay [19] is HepG2. The experiment in a line: Induction of apoptosis in human HepG2 cells assessed as increase in cytochrome-c expression at 10 uM after 30 mins to 24 hrs by Western blot method. It is filed as functional, cell-based.
The test system of assay [20] is HepG2. Description: Induction of apoptosis in human HepG2 cells assessed as increase in cleaved caspase-3 level at 5 to 10 uM after 30 mins to 24 hrs by Western blot method. It is filed as functional, cell-based.

Activity calls are given as the source filed them. No cut-off for these calls is given here. A value given as a limit tells only on which side of the number the result lay.

Sequence of Epidermal growth factor receptor (P00533 whole entry): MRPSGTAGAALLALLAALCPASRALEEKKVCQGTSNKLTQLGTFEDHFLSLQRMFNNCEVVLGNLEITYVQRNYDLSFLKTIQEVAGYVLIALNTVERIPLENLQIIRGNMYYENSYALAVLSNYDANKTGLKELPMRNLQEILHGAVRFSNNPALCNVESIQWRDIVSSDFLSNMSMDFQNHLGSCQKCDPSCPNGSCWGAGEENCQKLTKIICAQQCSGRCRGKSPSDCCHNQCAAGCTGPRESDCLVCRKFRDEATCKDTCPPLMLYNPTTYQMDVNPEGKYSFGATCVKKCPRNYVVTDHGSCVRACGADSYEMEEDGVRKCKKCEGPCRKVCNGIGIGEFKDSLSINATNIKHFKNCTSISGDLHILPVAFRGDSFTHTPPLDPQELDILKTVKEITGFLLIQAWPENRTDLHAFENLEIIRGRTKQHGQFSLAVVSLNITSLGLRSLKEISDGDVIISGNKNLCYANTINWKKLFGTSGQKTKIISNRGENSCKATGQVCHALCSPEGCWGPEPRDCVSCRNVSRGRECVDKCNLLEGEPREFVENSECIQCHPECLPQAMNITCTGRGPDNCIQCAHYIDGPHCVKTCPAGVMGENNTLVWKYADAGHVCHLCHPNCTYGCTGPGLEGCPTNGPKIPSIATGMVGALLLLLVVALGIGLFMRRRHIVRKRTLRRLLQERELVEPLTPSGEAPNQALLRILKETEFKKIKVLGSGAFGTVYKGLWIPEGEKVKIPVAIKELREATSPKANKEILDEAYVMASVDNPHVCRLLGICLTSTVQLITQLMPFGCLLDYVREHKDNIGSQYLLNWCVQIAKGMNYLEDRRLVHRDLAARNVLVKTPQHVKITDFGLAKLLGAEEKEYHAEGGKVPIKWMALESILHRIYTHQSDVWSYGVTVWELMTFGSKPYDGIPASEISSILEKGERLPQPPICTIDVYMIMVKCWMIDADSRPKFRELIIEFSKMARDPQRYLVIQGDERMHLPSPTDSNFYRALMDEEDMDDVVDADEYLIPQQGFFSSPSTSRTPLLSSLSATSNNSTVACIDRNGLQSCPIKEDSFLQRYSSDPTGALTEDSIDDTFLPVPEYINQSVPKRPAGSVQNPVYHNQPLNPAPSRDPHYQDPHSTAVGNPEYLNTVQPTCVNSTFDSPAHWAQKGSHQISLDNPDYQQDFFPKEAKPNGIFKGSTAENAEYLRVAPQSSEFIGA
Sequence of RAF proto-oncogene serine/threonine-protein kinase (P04049 whole entry): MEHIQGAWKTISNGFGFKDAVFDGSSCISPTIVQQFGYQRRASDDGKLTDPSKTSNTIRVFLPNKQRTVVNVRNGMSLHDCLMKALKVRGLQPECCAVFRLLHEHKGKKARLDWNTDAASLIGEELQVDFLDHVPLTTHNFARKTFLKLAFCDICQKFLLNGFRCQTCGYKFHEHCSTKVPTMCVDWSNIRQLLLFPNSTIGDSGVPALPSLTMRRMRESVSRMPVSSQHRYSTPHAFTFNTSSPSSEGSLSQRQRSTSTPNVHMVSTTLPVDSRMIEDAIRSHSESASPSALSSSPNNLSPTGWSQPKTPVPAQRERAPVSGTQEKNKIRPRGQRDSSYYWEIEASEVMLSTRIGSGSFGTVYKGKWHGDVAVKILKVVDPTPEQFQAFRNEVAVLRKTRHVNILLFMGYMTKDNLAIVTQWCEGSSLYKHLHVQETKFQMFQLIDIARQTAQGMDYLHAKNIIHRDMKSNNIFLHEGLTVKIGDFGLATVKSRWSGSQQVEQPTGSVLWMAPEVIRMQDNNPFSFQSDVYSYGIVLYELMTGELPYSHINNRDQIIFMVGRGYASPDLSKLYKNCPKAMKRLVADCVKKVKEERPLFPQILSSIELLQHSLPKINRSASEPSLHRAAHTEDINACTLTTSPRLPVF

Consider `CC(C)C[C@@H](NC(=O)OC(C)(C)C)C(=O)Nc1ccc2ncnc(Nc3ccc(F)c(Cl)c3)c2c1`, for which the figures for the IC50 (in the assay with HepG2 [1]; in assay [2]; on Aurora kinase B) were 13.8 µM, 140 nM and greater than 100 µM, respectively.

In the case of `C[C@@H](NC(=O)OC(C)(C)C)C(=O)Nc1ccc2ncnc(Nc3cccc(Br)c3)c2c1`, the IC50 with HepG2 [1] is greater than 50 µM; in assay [2], greater than 100000 nM; on Aurora kinase B it was greater than 100 µM.

Take `COc1cc2c(Nc3ccc(NC(=O)c4ccccc4)cc3)ncnc2cc1OCCCN1CCOCC1`: the results for the Activity in the assay with HepG2 [3] and in the assay with HepG2 [4] were 8.86% and 1.09%, respectively. Besides, the IC50 worked out at 1.4 µM with HepG2 [1] and 110 nM in [2].

Consider `CC(C)[C@@H](NC(=O)OC(C)(C)C)C(=O)Nc1ccc2ncnc(Nc3ccc(F)c(Cl)c3)c2c1`, for which the IC50 with HepG2 [1] was greater than 50 µM; against Aurora kinase B, greater than 100 µM.

Consider `CC(C)(C)OC(=O)NCC(=O)Nc1ccc2ncnc(Nc3ccc(F)c(Cl)c3)c2c1`, for which the concentration for half-maximal inhibition (IC50) with HepG2 [1] was 33 µM; in [2], 17 nM; at Aurora kinase B, 23.7 µM.

As for `CC[C@H](C)[C@@H](NC(=O)OC(C)(C)C)C(=O)Nc1ccc2ncnc(Nc3ccc(F)c(Cl)c3)c2c1`, the concentration for half-maximal inhibition (IC50) in the assay with HepG2 [1] is greater than 50 µM; against Aurora kinase B, greater than 100 µM.

As to `CC(C)C[C@@H](NC(=O)OC(C)(C)C)C(=O)Nc1ccc2ncnc(Nc3cccc(Br)c3)c2c1`, the concentration for half-maximal inhibition (IC50) with HepG2 [1] was 25 µM; in assay [2], 145 nM; on Aurora kinase B, greater than 100 µM.

For `CC[C@H](C)[C@@H](NC(=O)OC(C)(C)C)C(=O)Nc1ccc2ncnc(Nc3cccc(Br)c3)c2c1`, the half-inhibitory concentration (IC50) with HepG2 [1] was 34 µM; in assay [2] it was 55.5 nM; against Aurora kinase B, greater than 100 µM.

For `CC(C)C[C@@H](NC(=O)OC(C)(C)C)C(=O)Nc1ccc2ncnc(Nc3cccc(C(F)(F)F)c3)c2c1`, the IC50 in the assay on HepG2 [1] is greater than 50 µM; against Aurora kinase B, greater than 100 µM.

On to `C[C@@H](NC(=O)OC(C)(C)C)C(=O)Nc1ccc2ncnc(Nc3cccc(C(F)(F)F)c3)c2c1`, for which the results for the concentration for half-maximal inhibition (IC50) (in the assay with HepG2 [1]; in assay [2]; against Aurora kinase B) were greater than 50 µM, greater than 100000 nM and greater than 100 µM, respectively.

For the molecule `Cc1cccc(C)c1Nc1ncnc2ccc(NC(=O)CNC(=O)OC(C)(C)C)cc12`, the IC50 with HepG2 [1] was greater than 50 µM; at Aurora kinase B, greater than 100 µM.

With `CSCC[C@@H](NC(=O)OC(C)(C)C)C(=O)Nc1ccc2ncnc(Nc3cccc(C(F)(F)F)c3)c2c1`, the half-maximal inhibitory concentration (IC50) with HepG2 [1] is greater than 50 µM; against Aurora kinase B it was greater than 100 µM.

Regarding `CSCC[C@@H](NC(=O)OC(C)(C)C)C(=O)Nc1ccc2ncnc(Nc3cccc(Br)c3)c2c1`, the IC50 was greater than 50 µM in the assay with HepG2 [1] and greater than 100 µM on Aurora kinase B.

Regarding `CC(C)(C)OC(=O)NCC(=O)Nc1ccc2ncnc(Nc3cccc(C(F)(F)F)c3)c2c1`, the results for the concentration for half-maximal inhibition (IC50) in the assay with HepG2 [1] and at Aurora kinase B were greater than 50 µM and 51 µM, respectively.

Consider `CC(C)[C@@H](NC(=O)OC(C)(C)C)C(=O)Nc1ccc2ncnc(Nc3cccc(Br)c3)c2c1`, for which the values for the IC50 in the assay with HepG2 [1] and against Aurora kinase B were greater than 50 µM and greater than 100 µM, respectively.

Turning to `CC(C)[C@@H](NC(=O)OC(C)(C)C)C(=O)Nc1ccc2ncnc(Nc3cccc(C(F)(F)F)c3)c2c1`, the IC50 in the assay with HepG2 [1] was 4.3 µM; in [2], 1020 nM; in assay [5], greater than 100 µM; at Aurora kinase B, greater than 100 µM; in assay [6], greater than 100 µM; in assay [7], greater than 100 µM. Besides, the half-maximal inhibitory concentration (IC50) in assay [8] lay in the range of 100 to 500 µM.

As for `CSCC[C@@H](NC(=O)OC(C)(C)C)C(=O)Nc1ccc2ncnc(Nc3ccc(F)c(Cl)c3)c2c1`, the IC50 with HepG2 [1] was greater than 50 µM; against Aurora kinase B it was greater than 100 µM.

For the molecule `C[C@@H](NC(=O)OC(C)(C)C)C(=O)Nc1ccc2ncnc(Nc3ccc(F)c(Cl)c3)c2c1`, the figures for the IC50 (in the assay with HepG2 [1]; in assay [2]; against Aurora kinase B) were greater than 50 µM, greater than 100000 nM and greater than 100 µM, respectively.

For the molecule `CC(C)(C)OC(=O)NCC(=O)Nc1ccc2ncnc(Nc3cccc(Br)c3)c2c1`, the Activity in the assay on HepG2 [3] is 32.19%; with HepG2 [4] it was 1.53%; in the assay with HepG2 [11] it was 2.08%; with HepG2 [12], 6.38%; in the assay with HepG2 [13], 1.96%; in the assay with HepG2 [14] it was 9.25%. In addition, the Activity result in the assay with HepG2 [15] and in the assay with HepG2 [16] was “Dose-dependent effect” each time. In addition, the half-maximal inhibitory concentration (IC50) is 8.3 µM in the assay on HepG2 [1]; 7.35 µM in assay [5]; 6.2 µM against Aurora kinase B; 18.7 µM in [6]; 17.3 µM in [7]; greater than 100 µM in assay [8]. Also, the result with HepG2 [9], in the assay with HepG2 [10], with HepG2 [17], with HepG2 [18], in the assay with HepG2 [19] and in the assay with HepG2 [20] was Active.

As for `CC[C@H](C)[C@@H](NC(=O)OC(C)(C)C)C(=O)Nc1ccc2ncnc(Nc3cccc(C(F)(F)F)c3)c2c1`, the concentration for half-maximal inhibition (IC50) in the assay on HepG2 [1] is greater than 50 µM; on Aurora kinase B, greater than 100 µM.

For the origin of these results see ChEMBL document CHEMBL4011588, “Design, synthesis, and biological evaluation of novel 4-anilinoquinazoline derivatives bearing amino acid moiety as potential EGFR kinase inhibitors” (Eur J Med Chem, 2017).
